Test results reported in article PMC11292009, “Mapping protein binding sites by photoreactive fragment pharmacophores” (Communications Chemistry, 2024).

Columns and labels:
Assay type in all cases: binding
[1] = system: carbonic anhydrase II (CA); experiment: Intact protein MS photoaffinity labeling screen, carbonic anhydrase; settings: intact protein MS after 10 min irradiation
Description: (§1) Using a plate-based format with one fragment per well, each fragment was incubated with the target proteins for 15 min to allow for the formation of non-covalent interactions. […] Finally, the results were directly analyzed from the plate using intact protein mass spectrometry by observing the mass additions that correspond to successful labeling (Fig. 2c, for labeling % values see Supplementary data). The library was first characterized against three benchmark proteins like carbonic anhydrase (CA), lysozyme (Lyo), and myoglobin (Myo).

BRD4-BD1 = system: T1, BRD4-BD1; experiment: Intact MS photoaffinity labeling screen, BRD4-BD1 (302 nm, LCMS-TOF); settings: for MS labeling percentage, BRD4: BRD4-BD1, 302 nm 10 min; for experimental hit status BRD4-BD1: 0/1 flag
T1 construct: screened the PhP library against the first bromodomain of BRD4 (BRD4-BD1); purchased GSK/GenScript
Description: as §1
(§2) The PhP library was screened against BRD4-BD1 and KRas^G12D as follows. […] The probe plate was placed on ice. 15 μL of protein stock solution (1 μM BRD4-BD1 (GSK/GenScript) or KRas^G12D (GSK/GenScript) in PBS buffer) was dispensed into wells containing fragments. The plate was left on ice for 15 min for incubation, then irradiated at 302 nm for 10 min, and centrifuged (1000 rpm, 1 min) to remove any bubbles. […] The deconvoluted spectra were analyzed using R Studio software.

KRas^G12D = system: T2, KRas^G12D; experiment: Intact MS photoaffinity labeling screen, KRas G12D (302 nm, LCMS-TOF); settings: for MS labeling percentage, KRas: KRas G12D, 302 nm 10 min; for experimental hit status KRAS-G12D: 0/1 flag
T2 construct: purchased GSK/GenScript
Description: as §1, §2

lysozyme (Lyo) = experiment: Intact protein MS photoaffinity labeling screen, lysozyme; settings: intact protein MS after 10 min irradiation
Description: as §1

myoglobin (Myo) = experiment: Intact protein MS photoaffinity labeling screen, myoglobin; settings: intact protein MS after 10 min irradiation
Description: as §1

STAT5B-NTD [2] = system: T3, STAT5B-NTD; experiment: Intact MS photoaffinity labeling screen, STAT5B-NTD (365 nm, UHPLC-MS); settings: for MS labeling percentage, STAT5B: STAT5B-NTD, 365 nm 10 min, no photocatalyst; for experimental hit status STAT5B-NTD: 0/1 flag;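 on MS labeling percentage, STAT5B: 0.17 µL of 100 mM DMSO fragment stock added to the protein sample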
T3 construct: His-SUMO (N, cleaved yes); made in house; host or cells: E. coli BL21 RILP
Description: STAT5B protein in 7 µM concentration in pH 7.4 PBS buffer was pre-incubated with 0.17 µL PhP (in 100 mM DMSO solution) for 1 h at room temperature in dark. Irradiation was carried out at 4 °C for 10 min using 365 nm UV lamp.
(§3) During the analysis, the column temperature was maintained at a constant 60 °C, and a sample volume of 3 µL was injected for each analysis. Data acquisition was conducted in positive ion mode within the m/z 100–2000 (mass-to-charge ratio) range. For the full protocol and spectra of the hits, see Supplementary Note 2.

STAT5B-NTD [3] = system: T3, STAT5B-NTD; experiment: Intact MS labeling screen, STAT5B-NTD conjugated with photocatalyst Ir-G2-PEG3-COOH (450 nm); settings: 450 nm 10 min;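 further: 0.14 µL of 100 mM DMSO fragment stock added to the conjugate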
Description: For the photocatalysis experiments, 1.4 µL photocatalyst (in 1.4 mM DMSO solution, 10 eq) was pre-incubated with 1.5 µL coupling reagent (0.75 µL, 5.6 mM EDC (20 eq)+0.75 µL 4.2 mM NHS and 1.5 µL 2.1 mM (15 eq) BOP for 30 min in dark. 30 µL STAT5B-NTD (in 7 µM concentration) was added and incubated further at room temperature overnight or at 37 °C for 1 h in dark. After addition of 0.14 µL PhP (in 100 mM DMSO) the solution was further incubated in dark for 1 h. Irradiation was carried out using 450 nm LED lamp (7.6Vx0A) for 10 min at 4 °C.
as §3

[4] = experimental hit status flag (0/1)

Row | Structure (SMILES) | MS labeling percentage, CA [1] [%] | MS labeling percentage, BRD4 (BRD4-BD1) [%] | BRD4-BD1 (BRD4-BD1; [4]) | MS labeling percentage, KRas (KRas^G12D) [%] | KRAS-G12D (KRas^G12D; [4]) | MS labeling percentage, Lyo (lysozyme (Lyo)) [%] | MS labeling percentage, Myo (myoglobin (Myo)) [%] | MS labeling percentage, STAT5B (STAT5B-NTD [2]) [%] | STAT5B-NTD (STAT5B-NTD [2]; [4]) | MS labeling percentage, STAT5B+photocat (STAT5B-NTD [3]) [%] | experimental hit status BRD4-BD1 (BRD4-BD1) | experimental hit status KRAS-G12D (KRas^G12D) | experimental hit status STAT5B-NTD (STAT5B-NTD [2])
1 | Cc1nc2cc(NC(=O)CCC3(C)N=N3)ccc2n1-c1ccccc1 [PhP017, c1ccccc1-n(c(n2)C)c(c23)ccc(c3)NC(=O)CCC4(C)N=N4] | 0.6 | 3.4 | 0 | 0.9 | 0 | 0.1 | 0.5 | 1 | 0 | 4.4 |  |  | 
2 | COC(=O)C(NC(=O)CCC1(C)N=N1)c1ccc(C)cc1 (stereo not drawn) [PhP019, c1cc(C)ccc1C(C(=O)OC)NC(=O)CCC2(C)N=N2] | 0.2 | 0.3 |  | 0 |  | 0 | 0.1 | 1 |  | 2.7 | 0 | 0 | 0
3 | Cn1c(CCNC(=O)CCC2(C)N=N2)nc2ccccc21 [PhP020, c1cccc(c12)n(C)c(n2)CCNC(=O)CCC3(C)N=N3] | 0.2 | 0.4 |  | 0 |  | 0 | 0.3 | 0 |  | 0.6 | 0 | 0 | 0
4 | Cc1nn(C)cc1CNC(=O)CCC1(C)N=N1 [PhP021, Cc1nn(C)cc1CNC(=O)CCC2(C)N=N2] | 0.7 | 0.9 |  | 0.2 |  | 0 | 0.3 | 1 |  | 0.4 | 0 | 0 | 0
5 | CC1(CCC(=O)NCCCCN2CCOCC2)N=N1 [PhP022, N1=NC1(C)CCC(=O)NCCCCN2CCOCC2] | 0.5 | 0.6 |  | 0.5 |  | 0 | 0.2 | 1 |  | 0.4 | 0 | 0 | 0
6 | Cc1cccc2nc(CNC(=O)CCC3(C)N=N3)[nH]c12 [PhP023, c1ccc(C)c(c12)[nH]c(n2)CNC(=O)CCC3(C)N=N3] | 0.3 | 0.9 |  | 0.7 |  | 0 | 0.2 | 1 |  | 0 | 0 | 0 | 0
7 | CC1(CCC(=O)NCc2cccc(C(=O)OC(C)(C)C)c2)N=N1 [PhP024, CC(C)(C)OC(=O)c1cccc(c1)CNC(=O)CCC2(C)N=N2] | 0.2 | 1.4 |  | 0.1 |  | 0 | 0.2 | 0 |  | 7.2 | 0 | 0 | 0
8 | CC1(CCC(=O)NCc2ccccc2NS(C)(=O)=O)N=N1 [PhP025, CS(=O)(=O)Nc1ccccc1CNC(=O)CCC2(C)N=N2] | 0.2 | 0.2 |  | 0.1 |  | 0 | 0.1 | 0 |  | 1.2 | 0 | 0 | 0
9 | Cc1ccc(C(NC(=O)CCC2(C)N=N2)c2ccccn2)cc1 (stereo not drawn) [PhP026, n1ccccc1C(c(cc2)ccc2C)NC(=O)CCC3(C)N=N3] | 0.4 | 0.4 |  | 0.3 |  | 0.4 | 0.2 | 1 |  | 5 | 0 | 0 | 0
10 | CC1(CCC(=O)NCCNC(=O)c2ccc(Cl)cc2)N=N1 [PhP027, N1=NC1(C)CCC(=O)NCCNC(=O)c2ccc(Cl)cc2] | 0.4 | 0.5 |  | 0.1 |  | 0 | 0.2 | 1 |  | 5.2 | 0 | 0 | 0
11 | CC1(CCC(=O)NCc2ccccc2O)N=N1 [PhP028, N1=NC1(C)CCC(=O)NCc2ccccc2O] | 0 | 57 |  | 0.4 |  | 0 | 0.2 | 1 |  | 0.3 | 0 | 0 | 0
12 | CC1(CCC(=O)NC2CCCN(c3ncc[nH]c3=O)C2)N=N1 (stereo not drawn) [PhP029, N1=NC1(C)CCC(=O)NC2CCCN(C2)c3ncc[nH]c3=O] | 0 | 0.2 |  | 0 |  | 0 | 0.1 | 0 |  | 0.3 | 0 | 0 | 0
